# Assay results taken from US20110289043A1, “COMPUTATIONAL METHODS AND COMPOSITIONS” (Brown University Research Foundation, priority 2010, published 2011).
# B1: CCL19: chemokine (R&D Systems) used as chemoattractant for T cells (protein, UniProt Q99731 22-98, looked up)
# C-C motif chemokine 19: GTNDAEDCCLSVTQKPIPGYIVRNFHYLLIKDGCRVPAVVFTTLRGRQLCAPPDQPWVERIIQRLQRTSAKMKRRSS
# Tests used:
# [1] = test system: RBCs; assay: Deformability cytometer: velocity/passage of glutaraldehyde-treated RBCs through constriction channels; assay type: cell-based, human
# Method: FIG. 5B depicts the results of an experiment evaluating the velocity at different glutaraldehyde concentrations of RBCs moving through the two pore geometries. RBCs were treated with the indicated concentrations of glutaraldehyde for 30 minutes in PBS and then washed 3 times. The pressure difference/length was approximately 0.61 Pa/μm.
# PBS was mixed with 0.2% w/v Pluronic F-108 (BASF, Mount Olive, N.J.) and 1% w/v Bovine Serum Albumin (BSA) (Sigma-Aldrich, St. Louis, Mo.) as a stock solution to prevent RBC adhesion to the device walls. For the fluorescent bead experiments, 200 nm FluoSpheres europium luminescent microspheres (Molecular Probes, Eugene, Oreg.) diluted to a final concentration of 1.25×10^−5 percent solids were used.
# In experiments involving blood, 1 μl of whole blood (−50% hematocrit) was diluted in 100 μl of the PBS-pluronic-BSA solution for all of the experiments. In experiments involving parasites that express GFP, no further treatment was performed. In experiments involving healthy RBCs, 1 μl of whole blood (Research Blood Components, Brighton, Mass.), 1 μl of 50 μg/ml of Cell Tracker Orange (Invitrogen, Carlsbad, Calif.), and 98 μl of PBS were mixed with the indicated concentration of glutaraldehyde and allowed to sit for 30 minutes. The sample was then washed 3 times with the PBS-Pluronic-BSA solution. In experiments involving reticulocytes, 1 μl of whole blood, 89 μl of the PBS-Pluronic-BSA solution, and 10 μl of 1×10^−6M thiazole orange were mixed and allowed to sit for 20 minutes before starting experiments. Videos were obtained in which reticulocytes appear as uniformly fluorescent cells under the GFP filter set, while mature RBCs appear as shadows.
# The PBS-Pluronic-BSA solution was pumped through the device for 30 minutes to coat the device walls with Pluronic and BSA. The RBC-PBS-Pluronic-BSA suspension was then injected into the device. Differences in pressure between the two reservoirs were generated hydrostatically by a difference in water column height. […]
# [2] = test system: P. falciparum-infected RBCs (iRBCs) and co-cultured uninfected RBCs (uRBCs); assay: Microfluidic deformability (cell mobility) of RBCs after artesunate drug treatment; assay type: cell-based, human; conditions: for separation resolution between iRBCs and uRBCs: after artesunate drug treatment; for effect on RBC deformability (cell mobility): artesunate 0.01 to 0.1 μg/ml, 2, 4 and 6 hours
# Method: FIG. 60 provides cell mobility plots for both infected cells (shown by diamond symbols) and co-cultured uninfected cells (shown by circle symbols) with and without Artesunate drug treatment. The drug effect was traced at 2, 4 and 6 hours after drug treatment. Measurements were done at physiologically relevant dosage from 0.01 to 0.1 μg/ml.
# The deformability of both iRBCs and uRBCs were measured at 2, 4 and 6 hours after artesunate drug treatment (FIG. 60). A synchronized culture of rings with ˜15% parasitemia was resuspended at 0.1% hematocrit in malaria culture medium containing 0.01, 0.05 or 0.1 μg/ml of artesunate.
# P. falciparum 3D7A parasites (from Malaria Research and Reference Reagent Source, American Type Culture Collection) were cultured in leukocyte-free human RBCs (Research Blood Components, Brighton Mass.) in RPMI 1640 complete medium as described (Trager and Jensen J. parasitol. 2005). Parasites cultures were synchronized by sorbitol lysis (Lambros, C 1979 J. parasitol.) two hours after merozoite invasion.
# 1× Phosphate buffered saline (PBS) was mixed with 1% w/v Bovine Serum Albumin (BSA) (Sigma-Aldrich, St. Louis, Mo.) as a stock solution and was fresh made on every experimental day. For experiments tracking fluid flow velocity, 200 nm FluoSpheres europium luminescent microspheres (Molecular Probes, Eugene, Oreg.) were used at a final concentration of 5.0×10^−4 percent solids. For experiments involving only healthy RBCs, fresh whole blood (Research Blood Components, Brighton, Mass.) was used at 100 times dilution (i.e. 1 μl whole blood with 99 μl stock solution). For experiments involving parasitized cells, 1 ml of cultured cells were spun down at 1,000 rpm for 5 minute; 1 μl of the pellet was then aliquot to 200 μl stock solution.
# 10 μl of 1×10^−6M thiazole orange Orange (Invitrogen, Carlsbad, Calif.), which stains the RNA of the cell, was added to the aforementioned 200 μl iRBC solution 20 minutes before the experiment. The infected cells would appear fluorescent under the GFP filter set whereas the uninfected cells were seen as dark shadows.
# To control the ambient temperature, the microscope surface was replaced by a heating chamber (Olympus), which was preheated to a desired temperature range (i.e. 30-40° C.) for 30 minutes before the beginning of every experiment. Meanwhile, the PBS-BSA stock solution was injected into the device to coat the PDMS walls to prevent adhesion. This filling step need not be done inside the heating chamber, but the PBS-BSA filled device needed to be placed into the heating chamber at least 5 minutes before loading 10 μL of diluted blood sample. During temperature calibration phase, a thermal meter was used to probe the exact temperature inside the heating chamber. When the temperature needed to be adjusted to a different value, at least 5 minutes of waiting time was required to ensure a new stable ambient temperature.
# To apply a constant pressure gradient across the device, the pressure difference between inlet and outlet reservoir was generated hydrostatically by fixing the difference between inlet and outlet water column height (FIG. 55A).
# To capture the movement of RBCs inside the microchannels, a CCD camera (Hamamatsu Photonics, C4742-80-12AG, Japan) was connected to the inverted fluorescent microscope (Olympus IX71, Center Valley, Pa.). Images were automatically acquired by IPLab (Scanalytics, Rockville, Md.) at 100 ms time interval and the post-imaging analysis was done using imageJ. The mobility of individual RBCs was defined as the distance the cells moved divide by the time in seconds.
# [3] = test system: WT T cells; assay: FACS analysis of phenotype of T cells induced to migrate by CCL19; assay type: cell-based, mouse; conditions: after CCL19 exposure (100 ng/mL) for seven hours
# Method: FIG. 68 depicts results of a FACS analysis of phenotype of naïve WT T cells induced to migrate by the chemokine CCL19. T cells were first gated on PI to exclude dead cells. The cell samples tested were naïve T cells not exposed to CCL 19 (A, D), cells that remained in the insert after CCL19 exposure (100 ng/mL) for seven hours (B, E), and cells that migrated across the insert membrane after the same chemokine treatment (C, F).
# (§1) Cells from the peripheral lymph nodes and the spleen of Balb/c mice and WAS−/− mice on Balb/c background were pooled and enriched using the EasySep Mouse CD8+ T Cell Enrichment Kit from STEMCELL Technologies (British Columbia, Canada). Enrichment was confirmed using fluorescence-activated cell sorting (FACS) by staining the cells with FITC/anti-Thy1.2 and PE/anti-CD8α antibodies (Abs). The memory T cell population was assessed by evaluating the expression of CD44 and CD62L via FACS. T cells in an activation medium with 100 units/mL IL-2 and 1% anti-CD28 Ab were activated by plate-bound anti-CD3 Abs for 4 day at 37° C. The activation medium included RPMI with 10% FBS, 10 mM HEPES (1M), 1% NEAA, 1% sodium pyruvate (100 mM), 50 μM (β-mercaptoethanol, 4 mM L-glutamine, and 100 μg/mL Pen/Strep. Cell activation was verified via FACS measurement of CD25.
# [4] = test system: WT T cells; assay: Micropipette aspiration of CCL19-stimulated migratory T cells; assay type: cell-based, mouse
# Method: Enriched WT and WAS−/− T cells in DMEM with 1% BSA and 0.1% Pen/Strep were induced to migrate through polycarbonate Transwell inserts (Costar, Cambridge, Mass.) with 5-μm pores in a 24-well plate toward a CCL19 chemokine source (R&D Systems, Minneapolis, Minn.). Inserts contained 5×10^5 cells in 100 μL of medium, and wells contained 1 mL of medium with either no CCL19 or 100 ng/mL of CCL19. Cells were allowed to migrate for ˜7 hours at 37° C., and those that crossed the membrane were collected and used for MPA studies.
# 3×10^5 cells in 100 μL RPMI with 10% FBS and 1% HEPES was stained with 10 μL trypan blue. The mixture was added to 600 μL of either the RPMI medium or the T cell activation medium with IL-2 for naïve and activated T cell testing. Migratory T cells were tested in the medium used for migration. The MPA device was based on the design of Hochmuth et al (18). The aspiration rate and volume were 36 mL/hr and 2 mL, corresponding to a total pressure of ˜400 Pa. The cell movement in the micropipette was recorded with a CCD camera. Aspirations were performed at approximately room temperature.
# MPA data were fitting using the half-space model (77) described by the expressions: […]
# [5] = test system: WAS−/− T cells; assay: In vitro Transwell cell migration toward CCL19; assay type: cell-based, mouse; conditions: after seven hours of exposure to CCL19 (100 ng/mL), 5-μm pore Transwell
# Method: as §1, with “CD25. Enriched WT and WAS−/− T cells in DMEM with 1% BSA and 0.1% Pen/Strep were induced to migrate through polycarbonate Transwell inserts (Costar, Cambridge, Mass.) with 5-μm pores in a 24-well plate toward a CCL19 chemokine source (R&D Systems, Minneapolis, Minn.). Inserts contained 5×10^5 cells in 100 μL of medium, and wells contained 1 mL of medium with either no CCL19 or 100 ng/mL of CCL19. Cells were allowed to migrate for ˜7 hours at 37° C., and those that crossed the membrane were collected and used for MPA studies.” for “CD25.”
molecule,measurement,setting,value
O=CCCCC=O [glutaraldehyde],RBC stiffness / velocity with increasing glutaraldehyde concentration,"[1]; 30 minutes treatment in PBS, approximately 0.61 Pa/μm",progressively stiffer with decreasing velocity
same,RBC passage at high glutaraldehyde concentration,[1]; glutaraldehyde concentrations greater than 0.003%,most RBCs were held up at the entrance to the channel
same,RBCs passed through the channels,"[1]; glutaraldehyde concentrations less than 0.002%, treatment for 30 minutes",more than 95%
C[C@H]1[C@H](OC(=O)CCC(=O)O)O[C@@H]2O[C@@]3(C)CC[C@H]4[C@H](C)CC[C@@H]1[C@@]24OO3 [artesunate],mobility decrease,[2]; 2 and 4 hours after artesunate treatment,smaller and less pronounced mobility decrease
same,mobility decrease,"[2]; 6 hours after artesunate treatment, 0.01, 0.05 or 0.1 μg/ml",30%-50%
same,separation resolution between iRBCs and uRBCs,[2],almost doubled
same,separation resolution between iRBCs and uRBCs,[2]; listed as Artesunate,doubled
same,effect on RBC deformability (cell mobility),[2],stiffening effect on both iRBCs and uRBCs
same,effect on RBC deformability (cell mobility),[2]; listed as Artesunate,significant decrease in cell mobility
B1,migrating cells stained CD62L high and CD44 low (naive phenotype),[3],~90%
same,reduction of modulus from the value measured in the absence of CCL19,[4],more than 2 times
same,cells migrated,[5],~6.4%
